Values belong to the compound of their own block, whether it stands above or below them.
Tests used:
HCT116-MTAPwt = assay: 2D antiproliferative assay (CTG cell viability), wild-type cells; format: cell-based; conditions: Homo sapiens, HCT-116, 7-10 days
Protocol: (§1) HCT116 wild-type and MTAP-deficient cells were cultured in McCoy's 5A medium containing 10% FBS and 1% penicillin-streptomycin, and cultured in a 37°C, 5% CO2 constant temperature incubator. 40 µL of cell suspension was introduced into each well of a 384-well microplate. 40 nL of different concentrations of test compounds were added to each well using an Echo, before culturing in a 37°C, 5% CO2 constant temperature incubator for 7-10 days. 40 µL of CTG solution (Promega, Cat No. G7573) was added to each well and incubated in a 37°C, 5% CO2 constant temperature incubator for 30 minutes in the dark.

hERG channels = hERG channels (Homo sapiens, UniProt Q12809); assay: cell-based
Protocol: The CHO hERG-Duo cell line stably expressing hERG channels was purchased from B'SYS GmbH and screened for monoclonal clones using the patch clamp system of Pharmaron Beijing Co., Ltd. The cells were cultured in a medium containing F12 (HAM) medium, 10% fetal bovine serum, 100 U/mL penicillin-streptomycin, 100 µg/mL hygromycin, and 100 µg/mL G418.
The membrane was depolarized to +30 mV for 4.8 seconds before returning the voltage to -50 mV for 5.2 seconds to remove inactivation and measure the deactivation tail current. The sampling interval was 15 seconds, and the peak tail current size was used to quantify the hERG current amplitude.
A blank vehicle was applied to the cells to establish a baseline. Test samples were introduced after stabilizing the hERG current for at least 5 minutes. In the presence of the test compound, the hERG current at different working concentrations was recorded for no less than 5 minutes until reaching a steady state, before capturing 5 sweeps. If a steady state was not reached within 10 minutes, the mean peak current of the last 5 sweeps was taken instead of the steady-state value. […] Peak current inhibition = (1−(Peak tail currentcompound −Peak tail currentpositive control)/(Peak tail currentBlank vehicle −Peak tail currentpositive control)) × 100 [formula]

in vitro [1] = conditions: dog, MDCK-MDR1, pH 7.4
Protocol: (§2) The membrane permeability of the molecules of the present invention was evaluated to predict their permeability to the brain.
(§3) The specific procedure was: 1. MDCK-MDR1 cells were pre-cultured at a density of 1.56*10^6 cells/mL in a 96-well plate at 37°C for 7 days. 2. The MDCKII-MDR1 plate was taken out of the incubator, rinsed twice with pre-warmed HBSS (10 mM HEPES, pH 7.4), and then incubated at 37°C for 30 minutes. 3. The stock solution of the compound to be tested was diluted with DMSO to obtain a 0.2 mM solution, and then diluted with HBSS (10 mM HEPES, pH 7.4) to obtain a 1 µM working solution. A blank control group was also diluted with DMSO to obtain a 0.2 mM solution, and then diluted with HBSS (10 mM HEPES, pH 7.4) to obtain a 1 µM working solution. The final concentration of DMSO in the culture system was 0.5%. 4. The transport rate of the drug in the apical to basolateral direction was determined: 125 µL of the 1 µM test compound solution was added to a Transwell insert (top compartment), before immediately transferring a 50 µL sample (D0 sample) from the top comparment to a new 96-well plate. The receiving plate wells (basolateral compartment) were filled with 235 µL HBSS (10 mM HEPES, pH 7.4) and incubated at 37°C for 2 hours. 5. Upon completion of the incubation, 50 µL samples were transferred from the donor and acceptor sides to the wells of a new 96-well plate, before adding 4 volumes of cold acetonitrile containing an appropriate internal standard (IS). Prior to LC-MS/MS analysis, 100 µL of the supernatant was taken and mixed with an appropriate volume of ultrapure water. Papp = (VA×[drug]acceptor)/(Area×Time×[drug]initial,donor) [formula] where VA is the volume of the receptor pores (unit:mL), Area is the surface area of the membrane (0.143 cm^2 for a Transwell-96 well permeable support), and time is the total transport time in seconds. Efflux Ratio = Papp(B−A) /Papp(A−B) [formula]

MDR1 (P-gp) = assay: in vitro; conditions: dog, MDCK-MDR1, pH 7.4
Protocol: as §2, §3

HCT116-MTAPdel = assay: 2D antiproliferative assay (CTG cell viability), MTAP-deficient cells; format: cell-based; conditions: for IC50: Homo sapiens, HCT-116, HCT116 MTAP-deficient cells, 7-10 days, CTG, read-out: HCT116-MTAPdel/IC50/nM; for HCT116WT IMTAPdel selectivity: ratio IC50 wild type / MTAPdel, antiproliferation
Protocol: as §1

SDMA/HCT116-MTAPdel = assay: In-cell arginine symmetric dimethylation inhibition (In-cell western, ICW), MTAP-deficient cells; format: cell-based; conditions: for IC50: Homo sapiens, HCT-116, HCT116 MTAP-deficient cells, 96 hours; for Selectivity wt/MTAPdel: ratio SDMA IC50 wt / MTAPdel
Protocol: (§4) 60 nL of different concentrations of compounds were added to each well using an Echo, and incubated at 37°C, 5% CO2 for 96 hours.
(§5) Next, 50 µL of 4% paraformaldehyde solution was added to each well and incubated at room temperature for 20 minutes to fix the cells. The solution in the wells was removed, and each well was rinsed four times with PBS solution containing 0.1% Tween 20 (PBST). To each well was then added 30 µL of ice-cold methanol. After standing at -20°C for 10 minutes, the methanol was removed and the wells washed four times with PBST. 30 µL of Odyssey blocking solution containing 0.5% Tween 20 was added to each well and shaken for 2 hours at room temperature. The blocking solution was removed and 30 µL of primary antibody (Symmetric Di-Methyl Arginine Motif [sdma-RG] MultiMab™ Rabbit mAb mix) diluted at 1:500 in Odyssey blocking solution containing 0.5% Tween 20 was added to each well. The plates were incubated overnight at 4°C, before removing the primary antibody and rinsing each well four times with PBST, 5 minutes per rinse. Secondary antibody (goat anti-rabbit IRDye 800CW, 1:800) and nuclear stain (DRAQ5, 1:10000) diluted in Odyssey blocking solution containing 0.5% Tween 20 were then added to each well before incubating at room temperature for 2 hours in the dark. The secondary antibody was removed, and the wells rinsed four times with PBST.
(§6) The sdme-RG and DRAQ5 signals were scanned at 800 nm and 700 nm respectively on a Li-Cor Odyssey instrument and the signal values recorded. The sdme-RG/DRAQ5 ratio was used to calculate the percentage inhibition of arginine symmetric dimethylation (SDMA), and the IC50 value calculated using GraphPad Prism software.

SDMA/HCT116-MTAPwt = assay: In-cell arginine symmetric dimethylation inhibition (In-cell western, ICW), wild-type cells; format: cell-based; conditions: Homo sapiens, HCT-116, 96 hours
Protocol: as §4, §5, §6

[2] = Liver microsomal stability assay, human; conditions: liver microsomes
Protocol: (§7) The compounds to be tested were co-incubated with liver microsomes of different species with or without the addition of NADPH. The final concentration of the test compounds in the test system was 1 µM, the final concentration of NADPH was 1 mM, and the final concentration of liver microsomes was 0.5 mg/mL.

[3] = test system: HUP-T4 (MTAPdel) human pancreatic cancer tumor cells; assay: In vivo efficacy, HUP-T4 subcutaneous xenograft; design: species or system BALB/c nude mice; conditions: BID, oral; for TGI: 28 consecutive days; for Tumor volume (mm^3)-D1: D1 (baseline at start of dosing)
Protocol: HUP-T4 (MTAPdel) human pancreatic cancer tumor cells (MEM medium with 10% fetal bovine serum) were cultured and inoculated into 6-8 week old female BALB/c nude mice (weighing about 25 g), with all mice subcutaneously inoculated. The mice were cultured in an SPF-grade environment, and all mice had free access to commercially certified standard diets. Test compounds were orally administered daily once the average tumor volume of the mice grew to about 176 mm^3. The control group received blank solvent (0.1% TW80+0.5% methylcellulose+99.4% saline), while the test group received a drug dose of 75 mg/kg or 50 mg/kg, twice a day. Tumor volume was measured in two dimensions with calipers three times a week, and the animals were weighed every day. […] Voume calculation formula: V=1/2a*b^2, where a denotes the long diameter of the tumor, and b the short diameter of the tumor.

[4] = Liver microsomal stability assay, mouse; format: in vitro ADME; conditions: mouse liver microsomes 0.5 mg/mL, compound 1 µM, NADPH 1 mM, 60 minute
Protocol: as §7

[5] = Mouse pharmacokinetics testing; format: in vivo, CD1 female mice; conditions: female, CD1, mouse, in vivo
Protocol: CD1 female mice were used as test animals and administered the compounds orally/intravenously (oral dosage was 10 mg/kg and intravenous dosage was 2 mg/kg). Test protocol: Each oral and intravenous group consisted of three mice. […] Plasma drug concentrations after oral and intravenous administration were determined by LC/MS/MS, and the collected data analyzed using AB Sciex QTRAP 6500 software.

[6] = test system: NCI-H838 (MTAPdel) non-small cell lung adenocarcinoma tumor cells; assay: In vivo efficacy, NCI-H838 subcutaneous xenograft; design: species or system BALB/c nude mice; conditions: BID, oral; for TGI: 23 consecutive days; for Tumor volume (mm^3)-D1: D1 (baseline at start of dosing)
Protocol: NCI-H838 (MTAPdel) non-small cell lung adenocarcinoma tumor cells were cultured and inoculated into 6-8 week old female BALB/c nude mice (weighing about 20 g), with all mice inoculated subcutaneously. The mice were cultured in an SPF-grade environment, and all mice had free access to commercially certified standard diets. Test compounds were orally administered daily once the average tumor volume of the mice grew to about 140 mm^3. The control group received blank solvent (saline containing 0.1% Tween 80 and 0.5% methyl cellulose), while the test group received a drug dose of 75 mg/kg or 100 mg/kg, twice a day. Tumor volume was measured in two dimensions with calipers three times a week, and the animals were weighed every day. […] Volume calculation formula: V=1/2a*b^2, where a denotes the long diameter of the tumor, and b the short diameter of the tumor.

in vitro [7] = conditions: human, microsomes
Protocol: as §7

Sequence of hERG channels (Q12809 whole entry): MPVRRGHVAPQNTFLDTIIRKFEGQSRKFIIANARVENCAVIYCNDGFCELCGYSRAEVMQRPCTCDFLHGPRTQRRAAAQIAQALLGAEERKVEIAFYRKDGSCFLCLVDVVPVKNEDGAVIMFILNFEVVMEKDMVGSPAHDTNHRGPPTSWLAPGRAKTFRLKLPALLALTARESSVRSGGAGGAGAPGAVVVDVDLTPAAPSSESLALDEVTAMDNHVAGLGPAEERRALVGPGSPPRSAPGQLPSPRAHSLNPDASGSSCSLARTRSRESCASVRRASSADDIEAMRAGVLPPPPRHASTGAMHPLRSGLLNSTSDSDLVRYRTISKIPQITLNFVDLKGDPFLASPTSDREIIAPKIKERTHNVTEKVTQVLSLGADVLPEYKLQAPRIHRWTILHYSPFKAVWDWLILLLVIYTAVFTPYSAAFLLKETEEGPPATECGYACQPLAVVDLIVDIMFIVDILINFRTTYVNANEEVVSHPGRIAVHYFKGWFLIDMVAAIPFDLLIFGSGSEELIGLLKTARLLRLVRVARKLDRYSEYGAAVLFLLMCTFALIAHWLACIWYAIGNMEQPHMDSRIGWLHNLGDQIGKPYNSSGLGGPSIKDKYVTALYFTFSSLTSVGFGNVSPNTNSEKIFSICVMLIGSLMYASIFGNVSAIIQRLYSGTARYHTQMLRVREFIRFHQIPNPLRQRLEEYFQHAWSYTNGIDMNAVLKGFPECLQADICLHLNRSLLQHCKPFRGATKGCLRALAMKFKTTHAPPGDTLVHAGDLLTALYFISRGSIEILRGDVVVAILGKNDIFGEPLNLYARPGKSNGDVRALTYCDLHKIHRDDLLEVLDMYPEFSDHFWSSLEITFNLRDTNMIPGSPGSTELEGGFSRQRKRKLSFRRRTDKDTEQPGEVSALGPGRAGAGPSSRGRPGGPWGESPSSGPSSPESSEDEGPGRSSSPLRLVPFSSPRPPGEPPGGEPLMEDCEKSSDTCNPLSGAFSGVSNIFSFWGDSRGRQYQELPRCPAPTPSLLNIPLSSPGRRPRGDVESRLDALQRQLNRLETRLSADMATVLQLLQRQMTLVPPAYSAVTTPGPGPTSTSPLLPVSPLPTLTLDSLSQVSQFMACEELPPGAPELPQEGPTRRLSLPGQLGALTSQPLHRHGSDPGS

SMILES: CN(C(=O)C(=O)Nc1cnc(N)c2c1cnn2C)[C@@H]1COc2cc(SC(F)(F)F)ccc21 [Compound P29a]
IC50 (HCT116-MTAPwt): 2350 nM
IC50 (hERG channels): 1.5 µM
Papp A→B (in vitro [1]): 76 nm/s
Papp B→A (in vitro [1]): 133 nm/s
efflux ratio (MDR1 (P-gp)): 1.75
IC50 (HCT116-MTAPdel): 9 nM
HCT116WT IMTAPdel selectivity (HCT116-MTAPdel): 261
IC50 (SDMA/HCT116-MTAPdel): 0.4 nM
Selectivity wt/MTAPdel (SDMA/HCT116-MTAPdel): 670
IC50 (SDMA/HCT116-MTAPwt): 268 nM
CLint scaled at 1 µM [2]: 2.98 L/h/kg

SMILES: [2H]C([2H])([2H])N(C(=O)C(=O)Nc1cnc(N)c2c1cnn2C)[C@@H]1COc2cc(C(F)(F)F)ccc21 [Compound P22]
IC50 (HCT116-MTAPwt): 961 nM
TGI ([3]; 50 mg/kg): 102%
Tumor volume (mm^3)-D1 ([3]; 50 mg/kg): 176 mm^3
Tumor volume (mm^3)-D28 ([3]; 50 mg/kg): 158 mm^3
TGI ([3]; 75 mg/kg): 104%
Tumor volume (mm^3)-D1 ([3]; 75 mg/kg): 176 mm^3
Tumor volume (mm^3)-D28 ([3]; 75 mg/kg): 146 mm^3
Papp A→B (in vitro [1]): 149 nm/s
Papp B→A (in vitro [1]): 206 nm/s
efflux ratio (MDR1 (P-gp)): 1.38
IC50 (HCT116-MTAPdel): 6 nM
HCT116WT IMTAPdel selectivity (HCT116-MTAPdel): 160
CLint scaled at 1 µM [4]: 2.77 L/h/kg
IC50 (SDMA/HCT116-MTAPdel): 0.2 nM
Selectivity wt/MTAPdel (SDMA/HCT116-MTAPdel): 1490
IC50 (SDMA/HCT116-MTAPwt): 298 nM
CLint scaled at 1 µM [2]: 0.468 L/h/kg
F [5]: 62%
AUC(0-t) ([5]; iv, 2 mg/kg): 0.896 µg·h/mL
C0 ([5]; iv, 2 mg/kg): 1.14 µg/mL
clearance ([5]; iv, 2 mg/kg): 2.13 L/h/kg
half-life ([5]; iv, 2 mg/kg): 2.6 h
AUC(0-t) ([5]; po, 10 mg/kg): 2.66 µg·h/mL
Cmax ([5]; po, 10 mg/kg): 1.18 µg/mL
Tmax ([5]; po, 10 mg/kg): 0.25 h
half-life ([5]; po, 10 mg/kg): 2.2 h

SMILES: CN(C(=O)C(=O)Nc1cnc(N)c2c1cnn2C)[C@@H]1COc2cc(C(F)(F)F)ccc21 [Compound P2a]
IC50 (HCT116-MTAPwt): 1080 nM
Papp A→B (in vitro [1]): 148 nm/s
Papp B→A (in vitro [1]): 221 nm/s
efflux ratio (MDR1 (P-gp)): 1.5
IC50 (HCT116-MTAPdel): 5 nM
HCT116WT IMTAPdel selectivity (HCT116-MTAPdel): 216
CLint scaled at 1 µM [4]: 3.3 L/h/kg
IC50 (SDMA/HCT116-MTAPdel): 0.5 nM
Selectivity wt/MTAPdel (SDMA/HCT116-MTAPdel): 3054
IC50 (SDMA/HCT116-MTAPwt): 1530 nM
CLint scaled at 1 µM [2]: 0.444 L/h/kg
F [5]: 69%
AUC(0-t) ([5]; iv, 2 mg/kg): 0.402 µg·h/mL
C0 ([5]; iv, 2 mg/kg): 0.345 µg/mL
clearance ([5]; iv, 2 mg/kg): 4.94 L/h/kg
half-life ([5]; iv, 2 mg/kg): 1.2 h
AUC(0-t) ([5]; po, 10 mg/kg): 1.38 µg·h/mL
Cmax ([5]; po, 10 mg/kg): 0.707 µg/mL
Tmax ([5]; po, 10 mg/kg): 0.25 h
half-life ([5]; po, 10 mg/kg): 1.2 h
TGI ([6]; 75 mg/kg): 92%
Tumor volume (mm^3)-D1 ([6]; 75 mg/kg): 140 mm^3
Tumor volume (mm^3)-D23 ([6]; 75 mg/kg): 350 mm^3
TGI ([6]; 100 mg/kg): 97%
Tumor volume (mm^3)-D1 ([6]; 100 mg/kg): 140 mm^3
Tumor volume (mm^3)-D23 ([6]; 100 mg/kg): 180 mm^3

SMILES: [2H]C([2H])([2H])N(C(=O)C(=O)Nc1cnc(N)c2c1cnn2C)[C@@H]1COc2cc(SC(F)(F)F)ccc21 [Compound P32]
IC50 (HCT116-MTAPwt): 1750 nM
IC50 (hERG channels): 2.9 µM
TGI ([3]; 50 mg/kg): 97%
Tumor volume (mm^3)-D1 ([3]; 50 mg/kg): 176 mm^3
Tumor volume (mm^3)-D28 ([3]; 50 mg/kg): 198 mm^3
TGI ([3]; 75 mg/kg): 104%
Tumor volume (mm^3)-D1 ([3]; 75 mg/kg): 176 mm^3
Tumor volume (mm^3)-D28 ([3]; 75 mg/kg): 140 mm^3
Papp A→B (in vitro [1]): 105 nm/s
Papp B→A (in vitro [1]): 135 nm/s
efflux ratio (MDR1 (P-gp)): 1.28
IC50 (HCT116-MTAPdel): 9 nM
HCT116WT IMTAPdel selectivity (HCT116-MTAPdel): 194
CLint scaled at 1 µM [4]: 14.5 L/h/kg
IC50 (SDMA/HCT116-MTAPdel): 0.3 nM
Selectivity wt/MTAPdel (SDMA/HCT116-MTAPdel): 853
IC50 (SDMA/HCT116-MTAPwt): 256 nM
CLint scaled at 1 µM [2]: 1.92 L/h/kg
F [5]: 75%
AUC(0-t) ([5]; iv, 2 mg/kg): 0.788 µg·h/mL
C0 ([5]; iv, 2 mg/kg): 0.733 µg/mL
clearance ([5]; iv, 2 mg/kg): 2.51 L/h/kg
half-life ([5]; iv, 2 mg/kg): 1.4 h
AUC(0-t) ([5]; po, 10 mg/kg): 2.58 µg·h/mL
Cmax ([5]; po, 10 mg/kg): 0.798 µg/mL
Tmax ([5]; po, 10 mg/kg): 0.25 h
half-life ([5]; po, 10 mg/kg): 1.7 h

IC50 (HCT116-MTAPwt): 3300 nM
IC50 (HCT116-MTAPdel): 20 nM
CLint scaled at 1 h, 1 µM (in vitro [7]): 1.55 L/h/kg
SMILES: CN(C(=O)C(=O)Nc1cnc(N)c2c1cnn2C)C1COc2cc(SC(F)(F)F)ccc21 (racemic) [Compound P29]
HCT116WT IMTAPdel selectivity (HCT116-MTAPdel): 165
